The results in this text go back to patent US9777001B2 (priority 2014, dated 2017).

Usually Ki stands for a measure of affinity in units of concentration, obtained from inhibition or displacement. A lower Ki goes with a stronger hold on the target.

Structures can show the parent of a compound that is named as a salt.

Chain of human Factor XIa (P03951 388-625 limits assumed): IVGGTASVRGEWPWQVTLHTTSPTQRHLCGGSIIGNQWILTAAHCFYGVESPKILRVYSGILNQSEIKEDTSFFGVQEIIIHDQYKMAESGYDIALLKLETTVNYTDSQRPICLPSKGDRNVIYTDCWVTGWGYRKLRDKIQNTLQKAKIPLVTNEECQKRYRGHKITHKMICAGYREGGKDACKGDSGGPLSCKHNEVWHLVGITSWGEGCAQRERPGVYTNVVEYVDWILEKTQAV
Chain of human Factor XIa (P03951 19-387 partner limits assumed): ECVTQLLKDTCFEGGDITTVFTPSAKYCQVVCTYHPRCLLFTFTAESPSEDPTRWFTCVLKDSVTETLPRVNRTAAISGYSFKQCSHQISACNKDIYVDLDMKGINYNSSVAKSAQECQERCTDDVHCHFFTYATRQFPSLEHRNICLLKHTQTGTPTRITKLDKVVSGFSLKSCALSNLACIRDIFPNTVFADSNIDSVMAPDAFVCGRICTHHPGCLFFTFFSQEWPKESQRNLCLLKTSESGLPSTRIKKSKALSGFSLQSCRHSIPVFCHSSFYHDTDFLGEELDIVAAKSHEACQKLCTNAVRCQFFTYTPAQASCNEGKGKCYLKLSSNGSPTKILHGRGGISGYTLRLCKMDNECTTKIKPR

The first experiment concerns the target human Factor XIa (Homo sapiens, UniProt P03951). Description: biochemical. To be noted: purified human Factor XIa, substrate S-2366, HEPES buffer pH 7.4.
In turn, `C[C@@H]1CCC[C@H](n2cnc(-c3cc(Cl)ccc3-n3cc(Cl)nn3)cc2=O)c2cc(ccn2)-c2ccc(O)cc2NC1=O` [Example 85, (10R,14S)-14-{4-[5-chloro-2-(4-chloro-1H-1,2,3-triazol-1-yl)phenyl]-6-oxo-1,6-dihydropyrimidin-1-yl}-5-hydroxy-10-methyl-8,16-diazatricyclo[13.3.1.0^2,7]nonadeca-1(19),2(7),3,5,15,17-hexaen-9-one trifluoroacetate] returned an inhibition constant (Ki) of 0.1 nM.

Turning to `C[C@@H]1CCC[C@H](n2cnc(-c3cc(Cl)ccc3-n3cc(Cl)nn3)cc2=O)c2cc(ccn2)-c2cc(F)ccc2NC1=O` [Example 140, (10R,14S)-14-{4-[5-chloro-2-(4-chloro-1H-1,2,3-triazol-1-yl)phenyl]-6-oxo-1,6-dihydropyrimidin-1-yl}-4-fluoro-10-methyl-8,16-diazatricyclo[13.3.1.0^2,7]nonadeca-1(19),2(7),3,5,15,17-hexaen-9-one trifluoroacetate], the Ki was found to be 0.1 nM.

Regarding `C[C@@H]1CCC[C@H](n2cnc(-c3cc(Cl)ccc3-n3cc(C(F)(F)F)nn3)cc2=O)c2cc(ccn2)-c2c(Cl)cccc2NC1=O` [Example 105, (10R,14S)-3-chloro-14-(4-{5-chloro-2-[4-(trifluoromethyl)-1H-1,2,3triazol-1-yl]phenyl}-6-oxo-1,6-dihydropyrimidin-1-yl)-10-methyl-8,16-diazatricyclo[13.3.1.0^2,7]nonadeca-1(19),2(7),3,5,15,17-hexaen-9-one], the Ki stood at 0.41 nM.

With `C[C@@H]1CCC[C@H](n2cnc(-c3cc(Cl)ccc3-n3cc(C(F)(F)F)nn3)cc2=O)c2cc(ccn2)-c2ccc(C#N)cc2NC1=O` [Example 43, (10R,14S)-14-(4-{5-chloro-2-[4-(trifluoromethyl)-1H-1,2,3-triazol-1-yl]phenyl}-6-oxo-1,6-dihydropyrimidin-1-yl)-10-methyl-9-oxo-8,16-diazatricyclo [13.3.1.0^2,7]nonadeca-1(19),2(7),3,5,15,17-hexaene-5-carbonitrile trifluoroacetate], the affinity corresponds to a Ki of 3 nM.

Take `C[C@@H]1CCC[C@H](n2cnc(-c3cc(Cl)ccc3-n3cc(Cl)nn3)cc2=O)c2cc(ccn2)-c2ccccc2NC1=O` [Example 57, (10R,14S)-14-{4-[5-chloro-2-(4-chloro-1H-1,2,3-triazol-1-yl)phenyl]-6-oxo-1,6-dihydropyrimidin-1-yl}-10-methyl-8,16-diazatricyclo[13.3.1.0^2,7]nonadeca-1(19),2,4,6,15,17-hexaen-9-one]: the Ki was 0.28 nM.

Compound `C[C@@H]1CCC[C@H](n2cnc(-c3cc(Cl)ccc3-n3cc(C#N)nn3)cc2=O)c2cc(ccn2)-c2ccc(C(F)F)cc2NC1=O` [Example 70, 1-(4-chloro-2-{1-[(10R,14S)-5-(difluoromethyl)-10-methyl-9-oxo-8,16-diazatricyclo[13.3.1.0^2,7]nonadeca-1(19),2(7),3,5,15,17-hexaen-14-yl]-6-oxo-1,6-dihydropyrimidin-4-yl}phenyl)-1H-1,2,3-triazole-4-carbonitrile] had a Ki of 0.26 nM.

`C[C@@H]1CCC[C@H](n2cnc(-c3c(-n4cnnn4)ccc(Cl)c3F)cc2=O)c2cc(ccn2)-c2cc(F)ccc2NC1=O` [Example 35, (10R,14S)-14-{4-[3-chloro-2-fluoro-6-(1H-1,2,3,4-tetrazol-1-yl)phenyl]-6-oxo-1,6-dihydropyrimidin-1-yl}-4-fluoro-10-methyl-8,16-diazatricyclo[13.3.1.0^2,7]nonadeca-1(19),2(7),3,5,15,17-hexaen-9-one trifluoroacetate] gave a Ki of 0.1 nM.

For `COC(=O)c1ccc(Cl)cc1-c1cc(=O)n([C@H]2CCC[C@@H](C)C(=O)Nc3ccc(F)cc3-c3ccnc2c3)cn1` [Example 68, methyl 4-chloro-2-{1-[(10R,14S)-4-fluoro-10-methyl-9-oxo-8,16-diazatricyclo[13.3.1.0^2,7]nonadeca-1(19),2(7),3,5,15,17-hexaen-14-yl]-6-oxo-1,6-dihydropyrimidin-4-yl}benzoate], the Ki was found to be 39 nM.

In turn, `C[C@@H]1CCC[C@H](n2cnc(-c3cc(Cl)ccc3-c3csnn3)cc2=O)c2cc(ccn2)-c2cc(F)ccc2NC1=O` [Example 117, (10R,14S)-14-{4-[5-chloro-2-(1,2,3-thiadiazol-4-yl)phenyl]-6-oxo-1,6-dihydropyrimidin-1-yl}-4-fluoro-10-methyl-8,16-diazatricyclo[13.3.1.0^2,7]nonadeca-1(19),2(7),3,5,15,17-hexaen-9-one] gave an inhibition constant Ki of 2.7 nM.

Compound `C[C@@H]1CCC[C@H](n2cnc(-c3c(-n4cc(C(F)F)nn4)ccc(Cl)c3F)cc2=O)c2cc(ccn2)-c2cc(F)ccc2NC1=O` [Example 134, (10R,14S)-14-(4-{3-chloro-6-[4-(difluoromethyl)-1H-1,2,3-triazol-1-yl]-2-fluorophenyl}-6-oxo-1,6-dihydropyrimidin-1-yl)-4-fluoro-10-methyl-8,16-diazatricyclo [13.3.1.0^2,7]nonadeca-1(19),2(7),3,5,15,17-hexaen-9-one trifluoroacetate] registered a Ki of 0.16 nM.

On to `C[C@@H]1CCC[C@H](n2cnc(-c3c(C(F)(F)F)ccc(Cl)c3F)cc2=O)c2cc(ccn2)-c2cc(F)ccc2NC1=O` [Example 143, (10R,14S)-14-{4-[3-chloro-2-fluoro-6-(trifluoromethyl)phenyl]-6-oxo-1,6-dihydropyrimidin-1-yl}-4-fluoro-10-methyl-8,16-diazatricyclo[13.3.1.0^2,7]nonadeca-1(19),2(7),3,5,15,17-hexaen-9-one trifluoroacetate], for which affinity was put at a Ki of 17 nM.

With `C[C@@H]1CCC[C@H](n2cnc(-c3cc(Cl)ccc3-n3cc(C#N)nn3)cc2=O)c2cc(ccn2)-c2cc(F)ccc2NC1=O` [Example 148, 1-(4-chloro-2-{1-[(10R,14S)-4-fluoro-10-methyl-9-oxo-8,16-diazatricyclo [13.3.1.0^2,7]nonadeca-1(19),2(7),3,5,15,17-hexaen-14-yl]-6-oxo-1,6-dihydropyrimidin-4-yl}phenyl)-1H-1,2,3-triazole-4-carbonitrile trifluoroacetate], the Ki was determined as 0.1 nM.

`C[C@@H]1CCC[C@H](n2cnc(-c3cc(Cl)ccc3F)cc2=O)c2cc(ccn2)-c2cc(F)ccc2NC1=O` [Example 50, (10R,14S)-14-[4-(5-chloro-2-fluorophenyl)-6-oxo-1,6-dihydropyrimidin-1-yl]-4-fluoro-10-methyl-8,16-diazatricyclo[13.3.1.0^2,7]nonadeca-1(19),2(7),3,5,15,17-hexaen-9-one trifluoroacetate] returned a Ki of 290 nM.

Take `C[C@@H]1CCC[C@H](n2cnc(-c3cc(Cl)cc4cnn(C)c34)cc2=O)c2cc(ccn2)-c2ccccc2NC1=O` [Example 119, (10R,14S)-14-[4-(5-chloro-1-methyl-1H-indazol-7-yl)-6-oxo-1,6-dihydropyrimidin-1-yl]-10-methyl-8,16-diazatricyclo[13.3.1.0^2,7]nonadeca-1(19),2(7),3,5,15,17-hexaen-9-one]: the Ki worked out at 100 nM.

`C[C@@H]1CCC[C@H](n2cnc(-c3cc(Cl)ccc3-n3cc(Cl)nn3)cc2=O)c2cc(ccn2)-c2cc(S(C)(=O)=O)ccc2NC1=O` [Example 67, (10R,14S)-14-{4-[5-chloro-2-(4-chloro-1H-1,2,3-triazol-1-yl)phenyl]-6-oxo-1,6-dihydropyrimidin-1-yl}-4-methanesulfonyl-10-methyl-8,16-diazatricyclo [13.3.1.0^2,7]nonadeca-1(19),2(7),3,5,15,17-hexaen-9-one] returned a Ki of 11 nM.

As to `COc1ccc(Cl)cc1-c1cc(=O)n([C@H]2CCC[C@@H](C)C(=O)Nc3ccc(F)cc3-c3ccnc2c3)cn1` [Example 150, (10R,14S)-14[4-(5-chloro-2-methoxyphenyl)-6-oxo-1,6-dihydropyrimidin-1-yl]-4-fluoro-10-methyl-8,16-diazatricyclo[13.3.1.0^2,7]nonadeca-1(19),2(7),3,5,15,17-hexaen-9-one trifluoroacetate], the inhibition constant (Ki) is 310 nM.

`Cc1ccc2c(c1)NC(=O)[C@H](C)CCC[C@H](n1cnc(-c3cc(Cl)ccc3-n3cc(C(F)(F)F)nn3)cc1=O)c1cc-2ccn1` [Example 78, (10R,14S)-14-(4-{5-chloro-2-[4-(trifluoromethyl)-1H-1,2,3-triazol-1-yl]phenyl}-6-oxo-1,6-dihydropyrimidin-1-yl)-5,10-dimethyl-8,16-diazatricyclo [13.3.1.0^2,7]nonadeca-1(19),2(7),3,5,15,17-hexaen-9-one] gave a Ki of 0.42 nM.

For a further experiment, the target named is human plasma kallikrein (Homo sapiens, UniProt P03952). Description: biochemical. To be noted: purified human plasma kallikrein, substrate S-2302, sodium phosphate buffer pH 7.5.
Chain of human plasma kallikrein (P03952 391-638 limits assumed): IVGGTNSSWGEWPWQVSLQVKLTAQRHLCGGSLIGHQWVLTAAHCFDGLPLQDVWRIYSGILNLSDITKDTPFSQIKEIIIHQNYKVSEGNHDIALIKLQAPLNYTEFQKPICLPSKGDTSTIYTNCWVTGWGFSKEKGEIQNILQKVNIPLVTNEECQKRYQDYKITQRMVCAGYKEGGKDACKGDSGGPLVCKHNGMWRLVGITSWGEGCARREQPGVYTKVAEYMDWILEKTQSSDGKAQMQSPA
Chain of human plasma kallikrein (P03952 20-390 partner limits assumed): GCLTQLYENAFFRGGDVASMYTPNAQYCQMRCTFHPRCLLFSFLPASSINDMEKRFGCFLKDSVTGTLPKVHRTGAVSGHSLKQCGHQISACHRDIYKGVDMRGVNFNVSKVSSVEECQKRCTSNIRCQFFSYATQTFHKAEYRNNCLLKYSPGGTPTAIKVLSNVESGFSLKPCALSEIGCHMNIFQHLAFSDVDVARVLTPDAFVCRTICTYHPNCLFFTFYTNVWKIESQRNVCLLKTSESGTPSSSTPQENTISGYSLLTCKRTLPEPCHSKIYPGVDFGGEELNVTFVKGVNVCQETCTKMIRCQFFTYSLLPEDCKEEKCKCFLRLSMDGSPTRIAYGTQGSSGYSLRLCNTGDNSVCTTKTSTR
The compound `C[C@@H]1CCC[C@H](n2cnc(-c3cc(Cl)ccc3-n3cc(Cl)nn3)cc2=O)c2cc(ccn2)-c2ccc(C#N)cc2NC1=O` [Example 89, (10R,14S)-14-{4-[5-chloro-2-(4-chloro-1H-1,2,3-triazol-1-yl)phenyl]-6-oxo-1,6-dihydropyrimidin-1-yl}-10-methyl-9-oxo-8,16-diazatricyclo[13.3.1.0^2,7]nonadeca-1(19),2(7),3,5,15,17-hexaene-5-carbonitrile trifluoroacetate] showed an inhibition constant (Ki) of 8 nM.

As to `C[C@@H]1CCC[C@H](n2cnc(-c3cc(Cl)ccc3-n3cc(Cl)nn3)cc2=O)c2cc(ccn2)-c2ccc(C(F)F)cc2NC1=O` [Example 74, (10R,14S)-14-{4-[5-chloro-2-(4-chloro-1H-1,2,3-triazol-1-yl)phenyl]-6-oxo-1,6-dihydropyrimidin-1-yl}-5-(difluoromethyl)-10-methyl-8,16-diazatricyclo [13.3.1.0^2,7]nonadeca-1(19),2(7),3,5,15,17-hexaen-9-one], the inhibition constant Ki is 40 nM.

The compound `COC(=O)Nc1ccc2c(c1)CCCCCC[C@H](n1cnc(-c3cc(Cl)ccc3-n3cc(Cl)nn3)cc1=O)c1nc-2c[nH]1` [Example 131, methyl N-[(14S)-14-{4-[5-chloro-2-(4-chloro-1H-1,2,3-triazol-1-)phenyl]-6-oxo-1,6-dihydropyrimidin-1-yl}-16,18-diazatricyclo[13.2.1.0^2,7]octadeca-1(17),2,4,6,15 (18)-pentaen-5-yl]carb amate trifluoroacetate] returned a Ki of 2200 nM.
